According to the NIST ThermoML archive (doi:10.1021/je101209e):
± gives the expanded uncertainty stated by the source.

Experiments:
[1] = xn = mol fraction of the nth substance listed; details: Fluid (supercritical or subcritical phases), isochoric method, x1 = 0.489
[2] = molar heat capacity at constant volume; xn = mol fraction of the nth substance listed; details: Fluid (supercritical or subcritical phases), Vacuum adiabatic calorimetry, x1 = 0.489
[3] = molar heat capacity at constant volume; details: Fluid (supercritical or subcritical phases), Vacuum adiabatic calorimetry
[4] = Fluid (supercritical or subcritical phases), isochoric method

F/C=C/C(F)(F)F [trans-1,3,3,3-tetrafluoropropene] + O=C=O
Details | mass density, [1] [kg/m3] | molar heat capacity at constant volume, [2] [J/K/mol]
270.15 K, 10302 kPa | 1191.8 ± 1.9 | 74.42 ± 3.4
275.15 K, 14848 kPa | 1191 ± 1.9 | 74.81 ± 3.4
280.15 K, 19370 kPa | 1190.1 ± 1.9 | 75.36 ± 3.4
285.15 K, 23857 kPa | 1189.2 ± 1.9 | 75.44 ± 3.4
286.15 K, 24752 kPa | 1189 ± 1.9 | 77.71 ± 3.6
290.15 K, 7501 kPa | 1115.7 ± 1.8 | 76.77 ± 3.5
290.15 K, 28318 kPa | 1188.3 ± 1.9 | 75.75 ± 3.5
295.15 K, 11107 kPa | 1115 ± 1.8 | 77.86 ± 3.6
300.15 K, 14713 kPa | 1114.2 ± 1.8 | 78.41 ± 3.6
301.15 K, 15434 kPa | 1114.1 ± 1.8 | 78.57 ± 3.6
302.15 K, 16154 kPa | 1114 ± 1.8 | 78.33 ± 3.6
303.15 K, 16872 kPa | 1113.8 ± 1.8 | 77.63 ± 3.6
306.15 K, 19026 kPa | 1113.3 ± 1.8 | 76.61 ± 3.5
310.15 K, 21888 kPa | 1112.7 ± 1.8 | 79.59 ± 3.7
315.15 K, 25455 kPa | 1112 ± 1.8 | 79.12 ± 3.7
320.15 K, 9139 kPa | 1003.8 ± 1.6 | 75.59 ± 3.5
320.15 K, 28987 kPa | 1111.2 ± 1.8 | 78.18 ± 3.6
325.15 K, 11633 kPa | 1003.2 ± 1.6 | 76.38 ± 3.5
330.15 K, 14125 kPa | 1002.7 ± 1.6 | 75.99 ± 3.5
335.15 K, 16616 kPa | 1002.1 ± 1.6 | 74.81 ± 3.4
340.15 K, 19103 kPa | 1001.6 ± 1.6 | 74.81 ± 3.4
345.15 K, 21584 kPa | 1001 ± 1.6 | 76.85 ± 3.5
350.15 K, 24061 kPa | 1000.4 ± 1.6 | 76.46 ± 3.5
355.15 K, 26532 kPa | 999.9 ± 1.6 | 76.53 ± 3.5
360.15 K, 28998 kPa | 999.3 ± 1.6 | 78.8 ± 3.6
361.15 K, 7303 kPa | 648.9 ± 1.1 | 98.76 ± 4.5
365.15 K, 7938 kPa | 648.7 ± 1.1 | 97.58 ± 4.5
370.15 K, 8742 kPa | 648.5 ± 1.1 | 100.71 ± 4.6
375.15 K, 9557 kPa | 648.3 ± 1.1 | 103.3 ± 4.8
380.15 K, 10380 kPa | 648.1 ± 1.1 | 104.86 ± 4.9
385.15 K, 11211 kPa | 647.9 ± 1.1 | 104.47 ± 4.8
390.15 K, 12047 kPa | 647.6 ± 1.1 | 106.11 ± 4.9
395.15 K, 12887 kPa | 647.4 ± 1.1 | 107.91 ± 5
400.15 K, 13731 kPa | 647.2 ± 1.1 | 103.92 ± 4.8
405.15 K, 14576 kPa | 647 ± 1.1 | 102.28 ± 4.7
410.15 K, 15424 kPa | 646.8 ± 1.1 | 97.11 ± 4.5
415.15 K, 16273 kPa | 646.6 ± 1.1 | 93.67 ± 4.3
420.15 K, 17122 kPa | 646.3 ± 1.1 | 92.5 ± 4.2
425.15 K, 17972 kPa | 646.1 ± 1.1 | 91.79 ± 4.2

F/C=C/C(F)(F)F [trans-1,3,3,3-tetrafluoropropene]
Details | mass density, [4] [kg/m3] | molar heat capacity at constant volume, [3] [J/K/mol]
270.15 K, 5540 kPa | 1266.6 ± 2 | 107.31 ± 4.9
275.15 K, 7679 kPa | 1266.2 ± 2 | 107.2 ± 4.9
280.15 K, 9813 kPa | 1265.7 ± 2 | 108 ± 5
285.15 K, 11937 kPa | 1265.3 ± 2 | 107.88 ± 5
290.15 K, 14055 kPa | 1264.9 ± 2 | 107.43 ± 4.9
295.15 K, 2684 kPa | 1185 ± 1.9 | 110.39 ± 5.1
295.15 K, 16163 kPa | 1264.4 ± 2 | 107.2 ± 4.9
300.15 K, 4324 kPa | 1184.7 ± 1.9 | 111.19 ± 5.1
305.15 K, 5963 kPa | 1184.3 ± 1.9 | 111.42 ± 5.1
310.15 K, 7598 kPa | 1184 ± 1.9 | 112.22 ± 5.1
315.15 K, 9231 kPa | 1183.6 ± 1.9 | 111.99 ± 5.1
320.15 K, 10858 kPa | 1183.3 ± 1.9 | 112.9 ± 5.2
325.15 K, 12483 kPa | 1182.9 ± 1.9 | 112.45 ± 5.1
330.15 K, 14103 kPa | 1182.5 ± 1.9 | 113.13 ± 5.2
335.15 K, 3368 kPa | 1048.2 ± 1.7 | 122.82 ± 5.7
335.15 K, 15720 kPa | 1182.2 ± 1.9 | 111.99 ± 5.1
340.15 K, 4423 kPa | 1047.9 ± 1.7 | 121.57 ± 5.6
345.15 K, 5477 kPa | 1047.7 ± 1.7 | 121.91 ± 5.6
350.15 K, 6529 kPa | 1047.4 ± 1.8 | 121 ± 5.6
355.15 K, 7582 kPa | 1047.1 ± 1.7 | 119.97 ± 5.5
360.15 K, 8633 kPa | 1046.9 ± 1.7 | 118.83 ± 5.5
365.15 K, 9684 kPa | 1046.6 ± 1.7 | 118.49 ± 5.5
370.15 K, 10734 kPa | 1046.3 ± 1.7 | 118.95 ± 5.5
375.15 K, 11784 kPa | 1046.1 ± 1.7 | 119.06 ± 5.5
380.15 K, 12833 kPa | 1045.8 ± 1.7 | 120.88 ± 5.6
385.15 K, 4344 kPa | 717.5 ± 1.2 | 195.81 ± 9
385.15 K, 13882 kPa | 1045.6 ± 1.7 | 121 ± 5.6
390.15 K, 4695 kPa | 717.4 ± 1.2 | 192.84 ± 8.9
390.15 K, 14930 kPa | 1045.3 ± 1.7 | 120.43 ± 5.6
395.15 K, 5051 kPa | 717.3 ± 1.2 | 190.11 ± 8.8
395.15 K, 15976 kPa | 1045 ± 1.7 | 122.14 ± 5.6
400.15 K, 5410 kPa | 717.1 ± 1.2 | 185.43 ± 8.6
405.15 K, 5772 kPa | 717 ± 1.2 | 181.21 ± 8.3
410.15 K, 6137 kPa | 716.9 ± 1.2 | 176.31 ± 8.1
415.15 K, 6503 kPa | 716.8 ± 1.2 | 174.37 ± 8.7
420.15 K, 6872 kPa | 716.7 ± 1.2 | 171.18 ± 8.1
425.15 K, 7243 kPa | 716.6 ± 1.2 | 167.53 ± 7.8
